pIC50: −log10 of the molar value.
Tests used:
[1] = biological target: T1, CDK2/CycE (Homo sapiens, UniProt P24941); test: CDK2/CycE kinase assay (Method 2a); format: biochemical; conditions: 10 μM ATP
T1 construct: GST; purchased ProQinase GmbH (Freiburg, Germany); host or cells: insect cells (Sf9)
Source text: 2a. CDK2/CycE Kinase Assay:
CDK2/CycE-inhibitory activity of compounds of the present invention was quantified employing the CDK2/CycE TR-FRET assay as described in the following paragraphs:
(§1) Recombinant fusion proteins of GST and human CDK2 and of GST and human CycE, expressed in insect cells (Sf9) and purified by Glutathion-Sepharose affinity chromatography, were purchased from ProQinase GmbH (Freiburg, Germany) As substrate for the kinase reaction biotinylated peptide biotin-Ttds-YISPLKSPYKISEG (C-terminus in amid form) was used which can be purchased e.g. form the company JERINI Peptide Technologies (Berlin, Germany).
(§2) For the assay 50 nl of a 100 fold concentrated solution of the test compound in DMSO was pipetted into a black low volume 384 well microtiter plate (Greiner Bio-One, Frickenhausen, Germany), 2 μl of a solution of CDK2/CycE in aqueous assay buffer [50 mM Tris/HCl pH 8.0, 10 mM MgCl2, 1.0 mM dithiothreitol, 0.1 mM sodium ortho-vanadate, 0.01% (v/v) Nonidet-P40 (Sigma)] were added and the mixture was incubated for 15 min at 22° C. to allow pre-binding of the test compounds to the enzyme before the start of the kinase reaction. Then the kinase reaction was started by the addition of 3 μl of a solution of adenosine-tri-phosphate (ATP, 16.7 μM=>final conc. in the 5 μl assay volume is 10 μM) and substrate (1.25 μM=>final conc. in the 5 μl assay volume is 0.75 μM) in assay buffer and the resulting mixture was incubated for a reaction time of 25 min at 22° C. The concentration of CDK2/CycE was adjusted depending of the activity of the enzyme lot and was chosen appropriate to have the assay in the linear range, typical concentrations were in the range of 130 ng/ml. The reaction was stopped by the addition of 5 μl of a solution of TR-FRET detection reagents (0.2 μM streptavidine-XL665 [Cisbio Bioassays, Codolet, France] and 1 nM anti-RB(pSer807/pSer811)-antibody from BD Pharmingen [#558389] and 1.2 nM LANCE EU-W1024 labeled anti-mouse IgG antibody [Perkin-Elmer, product no. AD0077]) in an aqueous EDTA-solution (100 mM EDTA, 0.2% (w/v) bovine serum albumin in 100 mM HEPES/NaOH pH 7.0).
(§3) The resulting mixture was incubated 1 h at 22° C. to allow the formation of complex between the phosphorylated biotinylated peptide and the detection reagents. Subsequently the amount of phosphorylated substrate was evaluated by measurement of the resonance energy transfer from the Eu-chelate to the streptavidine-XL. Therefore, the fluorescence emissions at 620 nm and 665 nm after excitation at 350 nm was measured in a TR-FRET reader, e.g. a Rubystar (BMG Labtechnologies, Offenburg, Germany) or a Viewlux (Perkin-Elmer). The ratio of the emissions at 665 nm and at […] was taken as the measure for the amount of phosphorylated substrate. The data were normalised (enzyme reaction without inhibitor=0% inhibition, all other assay components but no enzyme=100% inhibition).

[2] = biological target: T1, CDK2/CycE; test: CDK2/CycE high ATP kinase assay (Method 2b); format: biochemical; conditions: 2 mM ATP
Protocol: 2b. CDK2/CycE High ATP Kinase Assay:
CDK2/CycE-inhibitory activity of compounds of the present invention at 2 mM adenosine-tri-phosphate (ATP) was quantified employing the CDK2/CycE TR-FRET (TR-FRET=Time Resolved Fluorescence Energy Transfer) assay as described in the following paragraphs.
as §1, with “were purchase” for “were purchased”, “JERINI peptide technologies” for “JERINI Peptide Technologies”
as §2, with “ATP (3.33 mM=>final” for “of adenosine-tri-phosphate (ATP, 16.7 μM=>final”, “2 mM)” for “10 μM)”, “15” for “130”, “AD0077, as an alternative a Terbium-cryptate-labeled anti-mouse IgG antibody from Cisbio Bioassays can be used])” for “AD0077])”
as §3, with “350 nm were measured in” for “350 nm was measured in”

Structure (SMILES) | pIC50 [1] | pIC50 [2]
COc1cc(F)ccc1-c1cc(Nc2cc(CS(C)(=N)=O)ccn2)ncn1 (single isomer, unassigned) [Example 3, 6-(4-Fluoro-2-methoxyphenyl)-N-{4-[(S-methylsulfonimidoyl)methyl]pyridin-2-yl}pyrimidin-4-amine] | 6.18 | 5.98
COc1cc(F)ccc1-c1cc(Nc2cc(CS(C)(=N)=O)cc(C(F)(F)F)n2)ncn1 (racemic) [Example 10, (rac)-6-(4-Fluoro-2-methoxyphenyl)-N-{4-[(S-methylsulfonimidoyl)methyl]-6-(trifluoromethyl)pyridin-2-yl}pyrimidin-4-amine] | 7.20 | 6.10
COc1cc(F)ccc1-c1cc(Nc2cc(CS(C)(=N)=O)ccn2)ncn1 (single isomer, unassigned) [Example 2, 6-(4-Fluoro-2-methoxyphenyl)-N-{4-[(S-methylsulfonimidoyl)methyl]pyridin-2-yl}pyrimidin-4-amine] | 5.89 | 5.81
COc1cc(F)ccc1-c1cc(Nc2cc(CS(C)(=N)=O)cc(Cl)n2)ncn1 (racemic) [Example 4, (rac)-N-{6-Chloro-4-[(S-methylsulfonimidoyl)methyl]pyridin-2-yl}-6-(4-fluoro-2-methoxyphenyl)pyrimidin-4-amine] | 6.80 | 5.95
COc1cc(F)ccc1-c1cc(Nc2cc(CS(C)(=N)=O)ccn2)ncn1 (racemic) [Example 1, (rac)-6-(4-Fluoro-2-methoxyphenyl)-N-{4-[(S-methylsulfonimidoyl)methyl]pyridin-2-yl}pyrimidin-4-amine] | 6.22 | 5.82

Now from value to compound:

pIC50 [1] | pIC50 [2] | Structure (SMILES)
6.48 | 5.36 | COc1cc(F)ccc1-c1cc(Nc2cc(CS(C)(=N)=O)cc(C)n2)ncn1 (single isomer, unassigned) [Example 9, 6-(4-Fluoro-2-methoxyphenyl)-N-{6-methyl-4-[(S-methylsulfonimidoyl)methyl]pyridin-2-yl}pyrimidin-4-amine]
6.55 | 5.44 | COc1cc(F)ccc1-c1cc(Nc2cc(CS(C)(=N)=O)cc(C)n2)ncn1 (racemic) [Example 7, (rac)-6-(4-Fluoro-2-methoxyphenyl)-N-{6-methyl-4-[(S-methylsulfonimidoyl)methyl]pyridin-2-yl}pyrimidin-4-amine]
7.25 | 5.85 | COc1cc(F)ccc1-c1cc(Nc2cc(CS(C)(=N)=O)cc(Cl)n2)ncn1 (single isomer, unassigned) [Example 5, N-{6-Chloro-4-[(S-methylsulfonimidoyl)methyl]pyridin-2-yl}-6-(4-fluoro-2-methoxyphenyl)pyrimidin-4-amine]
7.03 | 5.74 | COc1cc(F)ccc1-c1cc(Nc2cc(CS(C)(=N)=O)cc(Cl)n2)ncn1 (single isomer, unassigned) [Example 6, N-{6-Chloro-4-[(S-methylsulfonimidoyl)methyl]pyridin-2-yl}-6-(4-fluoro-2-methoxyphenyl)pyrimidin-4-amine]
6.40 | 5.20 | COc1cc(F)ccc1-c1cc(Nc2cc(CS(C)(=N)=O)cc(C)n2)ncn1 (single isomer, unassigned) [Example 8, 6-(4-Fluoro-2-methoxyphenyl)-N-{6-methyl-4-[(S-methylsulfonimidoyl)methyl]pyridin-2-yl}pyrimidin-4-amine]

From patent US9650361B2, “N-(pyridin-2-yl)pyrimidin-4-amine derivatives containing a sulfoximine group” (BAYER PHARAM AKTIENGESELLSCHAFT, priority 2012, dated 2017)
